Measurements reported in PMC7714403 (JCI Insight, 2020).

Legend:
AurA = molecular target: T1, AurA (Homo sapiens, UniProt O14965); assay: KiNativ, OCI cells live cell; assay type: cell-based; conditions: 2 h
T1 sequence (O14965 1-403): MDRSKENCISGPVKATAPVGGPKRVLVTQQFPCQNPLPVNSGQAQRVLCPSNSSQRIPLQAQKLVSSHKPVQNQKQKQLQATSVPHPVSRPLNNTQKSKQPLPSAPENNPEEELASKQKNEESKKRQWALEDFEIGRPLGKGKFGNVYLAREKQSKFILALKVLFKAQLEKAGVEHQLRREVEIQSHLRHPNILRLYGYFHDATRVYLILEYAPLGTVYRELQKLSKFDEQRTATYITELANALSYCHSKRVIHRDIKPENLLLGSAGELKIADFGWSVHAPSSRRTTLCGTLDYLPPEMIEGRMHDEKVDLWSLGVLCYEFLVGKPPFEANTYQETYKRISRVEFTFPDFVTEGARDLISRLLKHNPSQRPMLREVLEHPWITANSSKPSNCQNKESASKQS

MAP2K6 = molecular target: T2, MAP2K6 (Homo sapiens, UniProt P52564); assay: KiNativ, OCI cells live cell; assay type: cell-based; conditions: 2 h
T2 sequence (P52564 1-334): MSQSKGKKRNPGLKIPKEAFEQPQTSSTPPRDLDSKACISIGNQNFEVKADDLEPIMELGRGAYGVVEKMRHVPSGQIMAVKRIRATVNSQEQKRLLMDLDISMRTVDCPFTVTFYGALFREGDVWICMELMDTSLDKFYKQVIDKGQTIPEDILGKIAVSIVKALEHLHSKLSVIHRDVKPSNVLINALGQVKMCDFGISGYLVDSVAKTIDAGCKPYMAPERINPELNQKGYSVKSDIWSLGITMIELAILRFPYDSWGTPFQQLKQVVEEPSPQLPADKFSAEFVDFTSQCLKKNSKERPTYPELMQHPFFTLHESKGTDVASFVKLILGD

PIK3CB = PIK3CB (Homo sapiens, UniProt P42338); assay: KiNativ, OCI cells live cell; assay type: cell-based; conditions: 2 h, labeling site ATP, peptide […]
PIK3CB, sequence (P42338 whole entry): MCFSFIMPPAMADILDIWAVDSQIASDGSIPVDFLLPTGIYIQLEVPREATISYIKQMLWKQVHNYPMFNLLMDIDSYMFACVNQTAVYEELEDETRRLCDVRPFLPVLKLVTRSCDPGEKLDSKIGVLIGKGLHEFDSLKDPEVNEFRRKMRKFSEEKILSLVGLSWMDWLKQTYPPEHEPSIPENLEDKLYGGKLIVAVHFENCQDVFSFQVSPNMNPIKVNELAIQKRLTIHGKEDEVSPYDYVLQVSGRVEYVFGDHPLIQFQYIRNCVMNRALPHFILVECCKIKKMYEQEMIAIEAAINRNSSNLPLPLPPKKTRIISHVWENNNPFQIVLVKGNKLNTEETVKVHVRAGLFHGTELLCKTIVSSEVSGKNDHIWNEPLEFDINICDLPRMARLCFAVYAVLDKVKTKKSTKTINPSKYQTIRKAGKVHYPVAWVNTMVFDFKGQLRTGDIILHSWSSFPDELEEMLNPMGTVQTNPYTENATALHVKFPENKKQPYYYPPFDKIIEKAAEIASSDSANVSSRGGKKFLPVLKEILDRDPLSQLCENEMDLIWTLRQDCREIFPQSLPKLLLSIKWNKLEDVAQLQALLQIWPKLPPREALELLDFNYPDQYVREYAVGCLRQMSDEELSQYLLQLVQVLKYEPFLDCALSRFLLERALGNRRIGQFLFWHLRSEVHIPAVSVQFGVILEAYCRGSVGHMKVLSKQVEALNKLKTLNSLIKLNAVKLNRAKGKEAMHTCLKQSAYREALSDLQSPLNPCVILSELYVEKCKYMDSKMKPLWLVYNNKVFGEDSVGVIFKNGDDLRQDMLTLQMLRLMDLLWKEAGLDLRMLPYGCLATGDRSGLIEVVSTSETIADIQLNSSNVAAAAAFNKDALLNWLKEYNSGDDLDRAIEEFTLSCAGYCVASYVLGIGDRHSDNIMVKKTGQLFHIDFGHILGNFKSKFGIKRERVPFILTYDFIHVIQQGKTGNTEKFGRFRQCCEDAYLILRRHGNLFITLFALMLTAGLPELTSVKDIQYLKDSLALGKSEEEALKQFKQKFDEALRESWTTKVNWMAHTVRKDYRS
PIK3CB, sequence (P27986 whole entry partner): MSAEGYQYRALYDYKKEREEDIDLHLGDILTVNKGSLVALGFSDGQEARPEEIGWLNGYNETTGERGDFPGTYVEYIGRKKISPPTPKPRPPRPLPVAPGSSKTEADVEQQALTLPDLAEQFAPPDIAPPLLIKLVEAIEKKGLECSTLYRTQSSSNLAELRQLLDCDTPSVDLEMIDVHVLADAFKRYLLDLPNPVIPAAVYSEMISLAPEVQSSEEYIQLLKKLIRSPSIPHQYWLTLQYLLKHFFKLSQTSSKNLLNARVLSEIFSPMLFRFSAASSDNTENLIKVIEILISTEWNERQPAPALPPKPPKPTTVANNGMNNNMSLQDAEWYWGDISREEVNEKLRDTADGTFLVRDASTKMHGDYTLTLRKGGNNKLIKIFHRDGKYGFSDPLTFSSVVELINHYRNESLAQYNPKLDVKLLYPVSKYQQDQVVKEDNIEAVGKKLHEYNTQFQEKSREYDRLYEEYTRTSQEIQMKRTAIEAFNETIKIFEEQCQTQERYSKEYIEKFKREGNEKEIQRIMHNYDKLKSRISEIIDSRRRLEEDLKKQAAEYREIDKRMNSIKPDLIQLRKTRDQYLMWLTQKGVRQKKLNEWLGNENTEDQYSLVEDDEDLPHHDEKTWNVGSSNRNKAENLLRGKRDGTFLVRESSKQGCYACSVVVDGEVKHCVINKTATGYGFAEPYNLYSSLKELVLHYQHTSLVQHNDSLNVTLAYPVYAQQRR

ACK1 = ACK1 (Homo sapiens, UniProt Q07912); assay: KdELECT binding assay; set-up: purchased Eurofins DiscoverX
ACK1, sequence (Q07912 whole entry): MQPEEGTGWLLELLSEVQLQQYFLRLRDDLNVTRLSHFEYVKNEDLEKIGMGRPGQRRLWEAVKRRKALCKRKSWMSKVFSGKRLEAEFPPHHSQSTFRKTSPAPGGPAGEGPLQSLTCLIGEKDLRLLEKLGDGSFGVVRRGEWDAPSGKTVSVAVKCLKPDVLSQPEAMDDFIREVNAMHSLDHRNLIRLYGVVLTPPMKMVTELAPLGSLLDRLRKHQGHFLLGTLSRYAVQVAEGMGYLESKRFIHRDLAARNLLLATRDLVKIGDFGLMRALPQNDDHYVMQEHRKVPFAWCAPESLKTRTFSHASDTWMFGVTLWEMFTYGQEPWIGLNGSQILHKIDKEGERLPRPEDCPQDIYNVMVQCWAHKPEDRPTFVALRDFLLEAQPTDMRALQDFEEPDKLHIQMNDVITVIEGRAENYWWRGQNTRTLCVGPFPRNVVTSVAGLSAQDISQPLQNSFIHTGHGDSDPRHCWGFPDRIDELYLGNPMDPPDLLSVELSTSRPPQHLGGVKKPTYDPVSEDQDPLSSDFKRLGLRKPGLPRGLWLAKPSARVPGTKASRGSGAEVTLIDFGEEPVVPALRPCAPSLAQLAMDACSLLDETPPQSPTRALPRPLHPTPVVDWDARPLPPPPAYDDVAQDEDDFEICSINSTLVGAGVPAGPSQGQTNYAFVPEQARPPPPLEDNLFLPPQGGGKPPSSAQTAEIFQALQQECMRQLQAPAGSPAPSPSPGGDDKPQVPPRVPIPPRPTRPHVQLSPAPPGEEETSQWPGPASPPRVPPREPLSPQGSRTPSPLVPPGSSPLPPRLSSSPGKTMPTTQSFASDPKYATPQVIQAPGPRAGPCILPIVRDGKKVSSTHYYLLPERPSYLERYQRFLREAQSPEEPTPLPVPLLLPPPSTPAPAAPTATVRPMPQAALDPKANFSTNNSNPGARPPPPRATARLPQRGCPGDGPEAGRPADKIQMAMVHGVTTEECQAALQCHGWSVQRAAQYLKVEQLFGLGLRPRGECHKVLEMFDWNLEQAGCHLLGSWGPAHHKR

IRAK3 = molecular target: T3, IRAK3 (Homo sapiens, UniProt Q9Y616); assay: KiNativ, OCI cells live cell; assay type: cell-based; conditions: 2 h
T3 sequence (Q9Y616 1-596): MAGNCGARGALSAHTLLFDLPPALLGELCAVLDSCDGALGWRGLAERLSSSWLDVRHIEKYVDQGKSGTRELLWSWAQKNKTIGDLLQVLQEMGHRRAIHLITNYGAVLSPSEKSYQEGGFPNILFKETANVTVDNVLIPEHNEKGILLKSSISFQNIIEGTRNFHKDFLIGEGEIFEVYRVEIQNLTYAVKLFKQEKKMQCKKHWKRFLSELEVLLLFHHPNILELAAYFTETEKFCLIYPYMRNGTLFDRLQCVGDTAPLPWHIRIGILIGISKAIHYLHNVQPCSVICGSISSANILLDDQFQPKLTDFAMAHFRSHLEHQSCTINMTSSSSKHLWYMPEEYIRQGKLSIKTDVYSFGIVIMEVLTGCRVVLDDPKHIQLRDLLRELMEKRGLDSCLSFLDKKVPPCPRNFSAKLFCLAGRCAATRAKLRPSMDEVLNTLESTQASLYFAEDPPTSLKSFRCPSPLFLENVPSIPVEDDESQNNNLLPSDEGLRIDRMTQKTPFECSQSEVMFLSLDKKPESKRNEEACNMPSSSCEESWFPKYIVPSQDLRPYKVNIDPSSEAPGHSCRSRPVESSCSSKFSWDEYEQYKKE

OCI-AML3-Luc+ cells = assay: OCI-AML3-Luc+ xenograft model; assay type: in vivo, NSG mice
Experimental: Engraftment and growth of leukemic cells were monitored by noninvasive bioluminescence imaging in cell line xenograft models, as previously done ([47]). Details on the cell engraftment and dosing in mouse models are provided in the Supplemental Methods.
Luc+ or MOLM13-Res -Luc+ cells, 0.5 million OCI-AML3 -Luc+ cells, and 10,000 Ba/F3-FLT3-ITD/F691L-GFP+ cells. Weekly tumor engraftment of cell line xenograft models were assessed after injection of D-luciferin (150mg/kg i.p.; Gold Biotechnology, Inc, St. Louis, MO) on Xenogen IVIS-200 imaging system (Perkin Elmer, Waltham, MA) or GFP monitoring by peripheral blood via BD LSR II flow cytometer (BD Biosciences, San Jose, CA). Signal intensity was analyzed using Living Image Software (PerkinElmer) or FlowJo v10.0.08 software (FlowJo, LLC, Ashland, OR). Mice were randomized to treatment groups based on signal intensity and leukemia burden. Drug treatments were started on days 3, 7, or 13 after cell injection in OCI-AML3, MOLM13, and MOLM13-Res xenografts, respectively. […]
All mice were observed daily and humanely euthanized when showing signs of progressive disease including, hind limb paralysis, weight loss more than 20%, and lethargy. All animal studies were approved by the OSU Institutional Animal Care and Use Committee. […]
Cells were then fixed on ice with ice-cold 70% ethanol for 30 minutes . Cells were either stored at -20°C for up to 1 month or processed immediately. Cells were spun down at 450 x g for 10 minutes and stained

[1] = 50 mg/kg once daily 5 days/week

CN1CCN(Cc2ccc(Nc3ncc(Cl)c(Nc4ccccc4S(=O)(=O)N(C)C)n3)cc2)CC1 [TP-0903]
inhibition at 0.1 µM (AurA; labeling site Lys1, peptide FILALKVLFK): 89.9% | inhibition at 0.1 µM (AurA; labeling site Lys2, peptide DIKPENLLLGSAGELK): 90.7% | inhibition at 0.1 µM (MAP2K6; labeling site Activation Loop, peptide MCDFGISGYLVDSVAKTIDAGCKPYMAPER): 8.8% | inhibition at 0.1 µM (MAP2K6; labeling site Lys1, peptide HVPSGQIMAVKR): 28% | inhibition at 0.1 µM (MAP2K6; labeling site Lys2, peptide DVKPSNVLINALGQVK): 18.6% | inhibition at 0.1 µM (PIK3CB): -7.2% | Kd (ACK1): 7.3 nM | inhibition at 0.1 µM (IRAK3; labeling site Lys1, peptide VEIQNLTYAVKLFK): 87.9% | inhibition at 0.1 µM (IRAK3; labeling site Protein Kinase Domain, peptide SHLEHQSCTINMTSSSSKHLWYMPEEYIR): 94.9% | Outgrowth of leukemia cells (bioluminescence) (OCI-AML3-Luc+ cells; [1]): suppressed the outgrowth of leukemia cells | Spleen weight at study endpoint (mean ± SD) (OCI-AML3-Luc+ cells; [1]): 181 ± 21 mg | Survival prolonged compared with vehicle (OCI-AML3-Luc+ cells; 50 mg/kg once daily 5 days/week up to 6 weeks): 9 days
